Measurements from patent US10336707B2, “Heterocyclic derivatives modulating activity of certain protein kinases” (EUDENDRON S.R.L., priority 2014, dated 2019).

Key:
[1] = test system: Karpas 299 lymphoma cell line positive for the oncogenic fusion protein NPM-ALK; assay: Tritiated thymidine uptake cell proliferation assay, Karpas 299; format: cell-based; details: Homo sapiens
Method: (§1) Method: Tritiated Thymidine Uptake Cell Proliferation Assay
(§2) The following procedure was used with parent untransformed BaF3 cells, BaF3 cells transformed with the oncogenic fusion protein NPM/ALK, NPM/ALK positive SUDHL-1 cells, NPM/ALK positive SUPM2, ALK-negative HL60 cells, NPM/ALK positive KARPAS-299 cells. The parent untransformed BaF3 cells or Alk-negative HL60 cells are used as controls. Cells were seeded in U-bottomed 96-well plates at 10000 cells/well in a volume of 100 μl in supplemented medium. In the case of the parent untransformed BaF3 cells, the medium was supplemented with IL-3. Serial dilutions of inhibitors were added to the appropriate wells and volumes adjusted to 200 μl. Controls were treated with the equivalent volume of vehicle, DMSO, alone. Plates were incubated at 37° C. for 72 h. 3[H]-thymidine (1 μCi/well) was added for the last 16 h of incubation. Cells were harvested on to paper filters and 3[H]-thymidine incorporation was measured using a scintillation counter (1430 MicroBeta, Wallac, Turku, Finland). The 50% inhibitory concentration (IC50) was defined as the concentration of inhibitor, expressed in nanomolar units, that gave a 50% decrease in 3[H]-thymidine uptake compared with controls.
In Table 1 are listed results for selected examples of compounds of the invention, reported as percentage of inhibition of cell proliferation at 200 nM, obtained from cellular assays in Karpas 299 lymphoma cell line positive for the oncogenic fusion protein NPM-ALK.

[2] = test system: NPM/ALK positive SUDHL-1 cells; assay: Tritiated thymidine uptake cell proliferation assay, SUDHL1; format: cell-based; details: Homo sapiens, SU-DHL-1; cell line SUDHL1; read-out: IC50 of cellular proliferation, SUDHL1
Method: as §1, §2
In Table 4 are reported the IC50 of cellular proliferation assays of example 3 versus ALK positive, mutated and negative cell lines.

ALKL1196M (GST-His-tag) = molecular target: T1, ALKL1196M (GST-His-tag) (Homo sapiens, UniProt Q9UM73, L1196M); assay: Radiometric protein kinase assay (33PanQuinase Activity Assay), ALK L1196M; format: biochemical; details: ATP 0.3 μM
T1 construct: either as full-length or enzymatically active fragments; purchased ProQinase GmbH (Freiburg, Germany)
Method: (§3) A proprietary radiometric protein kinase assay (33PanQuinase® Activity Assay) developed by ProQuinase GmbH (Freiburg, Germany) was used for measuring the kinase activity of selected protein kinases. All assays were performed in FlashPlates™ wells 96 Perkin Elmer (Boston, Mass., USA) in a reaction volume of 50 μl. The reaction mixture was obtained in 4 steps in the following order: • 1. 10 μl of a solution of non-radioactive ATP in water; • 2. 25 μl of assay buffer/[γ-^33P]-ATP mixture • 3. 5 μl of test sample in 10% DMSO • 4. 10 μl of enzyme/substrate mixture
(§4) All protein kinases provided by ProQinase were expressed in Sf9 insect cells or in E. coli as recombinant GST-fusion proteins or His-tagged proteins, either as full-length or enzymatically active fragments. […] Kinases from external vendors (CAR=Carna Biosciences Inc.; INV=Life Technologies (Invitrogen Corporation); MIL=Merck-Millipore (Millipore Corporation), were expressed, purified and quality-controlled by virtue of the vendors readings.
(§5) A stock solution of compound of formula (I) was diluted to 5×10-04M/100% DMSO. […] Incorporation of 33Pi (counting of “cpm”) was determined with a microplate scintillation counter (Microbeta, Wallac). […]
(§6) Based on each 10 corresponding residual activities, IC50 values were calculated using Prism 5.04 for Windows (Graphpad, San Diego, Calif.). […]

[3] = molecular target: T2, ALK wild-type (GST-His-tag) (Homo sapiens, UniProt Q9UM73); assay: Radiometric protein kinase assay (33PanQuinase Activity Assay), ALK wild-type; format: biochemical; details: ATP 0.3 μM
T2 construct: either as full-length or enzymatically active fragments; purchased ProQinase GmbH (Freiburg, Germany)
Method: as §3, §4, §5, §6

RET M918T = molecular target: T3, RET M918T (Homo sapiens, UniProt P07949, M918T); assay: Radiometric protein kinase assay (33PanQuinase Activity Assay), RET M918T; format: biochemical; details: ATP 0.3 μM
T3 construct: either as full-length or enzymatically active fragments; purchased ProQinase GmbH (Freiburg, Germany)
Method: as §3, §4, §5, §6

TRK-B = molecular target: T4, TRK-B (Homo sapiens, UniProt Q16620); assay: Radiometric protein kinase assay (33PanQuinase Activity Assay), TRK-B; format: biochemical; details: ATP 0.3 μM
T4 construct: either as full-length or enzymatically active fragments; purchased ProQinase GmbH (Freiburg, Germany)
Method: as §3, §4, §5, §6

T4 sequence (Q16620 32-822): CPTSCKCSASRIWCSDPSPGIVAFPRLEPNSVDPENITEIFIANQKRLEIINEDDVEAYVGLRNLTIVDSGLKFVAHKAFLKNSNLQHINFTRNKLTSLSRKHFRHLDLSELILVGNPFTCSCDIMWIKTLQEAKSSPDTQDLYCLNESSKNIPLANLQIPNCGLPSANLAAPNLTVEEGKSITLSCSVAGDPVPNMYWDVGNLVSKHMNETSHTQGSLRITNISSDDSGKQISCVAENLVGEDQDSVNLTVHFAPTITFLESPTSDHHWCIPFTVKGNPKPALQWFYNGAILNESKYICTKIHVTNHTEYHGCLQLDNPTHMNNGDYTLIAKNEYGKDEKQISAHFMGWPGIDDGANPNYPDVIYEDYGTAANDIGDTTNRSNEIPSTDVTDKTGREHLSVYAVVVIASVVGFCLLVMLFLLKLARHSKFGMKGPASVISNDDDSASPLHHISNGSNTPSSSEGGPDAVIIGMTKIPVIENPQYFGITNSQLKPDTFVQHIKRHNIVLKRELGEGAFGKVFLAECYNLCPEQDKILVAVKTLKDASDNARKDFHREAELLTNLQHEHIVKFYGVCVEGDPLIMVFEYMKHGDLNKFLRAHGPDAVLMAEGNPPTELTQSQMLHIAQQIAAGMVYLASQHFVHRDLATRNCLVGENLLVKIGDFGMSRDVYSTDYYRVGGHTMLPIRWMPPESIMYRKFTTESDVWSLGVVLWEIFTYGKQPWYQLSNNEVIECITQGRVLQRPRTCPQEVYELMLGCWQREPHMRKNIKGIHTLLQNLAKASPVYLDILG
T2 sequence (Q9UM73 19-1620): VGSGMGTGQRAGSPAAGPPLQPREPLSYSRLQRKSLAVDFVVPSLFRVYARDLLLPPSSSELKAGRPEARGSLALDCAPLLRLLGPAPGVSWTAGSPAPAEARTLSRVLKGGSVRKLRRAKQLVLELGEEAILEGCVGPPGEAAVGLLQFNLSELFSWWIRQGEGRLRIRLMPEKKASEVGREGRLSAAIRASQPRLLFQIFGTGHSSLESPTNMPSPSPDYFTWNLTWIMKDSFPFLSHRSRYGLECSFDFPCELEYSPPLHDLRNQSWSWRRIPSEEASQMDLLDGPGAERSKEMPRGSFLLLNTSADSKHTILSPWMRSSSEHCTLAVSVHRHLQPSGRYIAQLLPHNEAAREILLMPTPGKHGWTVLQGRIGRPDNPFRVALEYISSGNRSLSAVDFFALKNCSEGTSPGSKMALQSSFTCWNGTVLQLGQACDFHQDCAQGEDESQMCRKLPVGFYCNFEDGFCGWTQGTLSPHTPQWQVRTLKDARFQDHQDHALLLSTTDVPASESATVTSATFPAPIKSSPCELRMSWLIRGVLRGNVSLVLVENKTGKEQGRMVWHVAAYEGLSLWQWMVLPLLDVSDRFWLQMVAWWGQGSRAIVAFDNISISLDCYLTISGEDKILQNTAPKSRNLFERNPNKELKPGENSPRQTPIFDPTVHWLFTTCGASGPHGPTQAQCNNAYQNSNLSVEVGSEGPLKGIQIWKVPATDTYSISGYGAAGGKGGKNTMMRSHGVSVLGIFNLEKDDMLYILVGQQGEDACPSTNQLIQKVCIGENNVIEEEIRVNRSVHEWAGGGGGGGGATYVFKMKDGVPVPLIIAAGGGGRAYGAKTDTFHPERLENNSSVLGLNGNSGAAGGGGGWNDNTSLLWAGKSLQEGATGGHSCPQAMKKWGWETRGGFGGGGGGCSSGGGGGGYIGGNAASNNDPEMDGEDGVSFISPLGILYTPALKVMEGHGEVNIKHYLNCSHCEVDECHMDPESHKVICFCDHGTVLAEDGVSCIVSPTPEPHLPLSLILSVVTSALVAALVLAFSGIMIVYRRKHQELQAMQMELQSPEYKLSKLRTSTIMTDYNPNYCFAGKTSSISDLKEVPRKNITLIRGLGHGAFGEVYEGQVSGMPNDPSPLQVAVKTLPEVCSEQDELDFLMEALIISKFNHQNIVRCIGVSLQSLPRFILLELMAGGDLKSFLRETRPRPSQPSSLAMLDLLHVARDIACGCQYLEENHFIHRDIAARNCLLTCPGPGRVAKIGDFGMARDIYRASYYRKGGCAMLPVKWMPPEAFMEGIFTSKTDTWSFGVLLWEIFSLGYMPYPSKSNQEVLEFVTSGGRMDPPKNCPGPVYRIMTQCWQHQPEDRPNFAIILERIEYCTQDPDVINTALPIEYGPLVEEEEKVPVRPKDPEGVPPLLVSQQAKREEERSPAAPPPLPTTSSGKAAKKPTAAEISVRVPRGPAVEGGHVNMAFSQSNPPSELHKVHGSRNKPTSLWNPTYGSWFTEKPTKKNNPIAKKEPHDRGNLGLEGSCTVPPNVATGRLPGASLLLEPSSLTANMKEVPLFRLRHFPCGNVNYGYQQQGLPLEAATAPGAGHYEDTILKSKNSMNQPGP
T3 sequence (P07949 29-1114 M918T): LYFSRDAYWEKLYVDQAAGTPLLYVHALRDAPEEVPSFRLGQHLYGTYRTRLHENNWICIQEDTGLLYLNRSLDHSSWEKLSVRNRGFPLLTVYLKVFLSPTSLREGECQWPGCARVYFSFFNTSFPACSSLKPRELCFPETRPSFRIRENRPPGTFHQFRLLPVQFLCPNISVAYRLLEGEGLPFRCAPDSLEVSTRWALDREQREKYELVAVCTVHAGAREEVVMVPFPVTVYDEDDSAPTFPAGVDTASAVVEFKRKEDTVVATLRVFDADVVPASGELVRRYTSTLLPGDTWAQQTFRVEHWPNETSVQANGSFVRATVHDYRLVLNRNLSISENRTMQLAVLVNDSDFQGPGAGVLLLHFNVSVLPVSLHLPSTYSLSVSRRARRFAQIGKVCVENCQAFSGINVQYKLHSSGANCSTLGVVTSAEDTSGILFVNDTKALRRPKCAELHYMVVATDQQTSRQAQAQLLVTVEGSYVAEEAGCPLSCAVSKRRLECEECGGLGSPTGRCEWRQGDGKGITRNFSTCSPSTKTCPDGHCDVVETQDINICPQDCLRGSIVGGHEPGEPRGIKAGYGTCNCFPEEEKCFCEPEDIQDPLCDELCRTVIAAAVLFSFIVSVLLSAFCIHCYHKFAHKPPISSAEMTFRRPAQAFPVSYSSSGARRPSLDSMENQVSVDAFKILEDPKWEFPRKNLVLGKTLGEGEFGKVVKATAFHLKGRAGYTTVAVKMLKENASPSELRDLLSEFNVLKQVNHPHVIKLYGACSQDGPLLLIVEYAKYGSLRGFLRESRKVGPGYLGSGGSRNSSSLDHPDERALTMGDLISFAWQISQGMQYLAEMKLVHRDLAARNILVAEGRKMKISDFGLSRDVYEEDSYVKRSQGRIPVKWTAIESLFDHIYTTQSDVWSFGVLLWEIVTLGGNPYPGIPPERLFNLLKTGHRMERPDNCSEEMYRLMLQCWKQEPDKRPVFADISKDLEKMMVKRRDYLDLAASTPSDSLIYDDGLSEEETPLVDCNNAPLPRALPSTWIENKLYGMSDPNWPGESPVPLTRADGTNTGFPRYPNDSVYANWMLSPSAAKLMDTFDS
T1 sequence (Q9UM73 19-1620 L1196M): as the sequence (Q9UM73 19-1620) above, with L1178M counted along it

## CN1CCN(c2ccc(C(=O)Nc3n[nH]c4cc(-c5ccc(O)cc5)c(Cc5cc(F)cc(F)c5)cc34)c(NC3CCOCC3)c2)CC1 [Example 3, N-[5-[(3,5-difluorophenyl)methyl]-6-(4-hydroxyphenyl)-1H-indazol-3-yl]-4-(4-methylpiperazin-1-yl)-2-(tetrahydropyran-4-ylamino)benzamide]
[1]; KARPAS-299, read-out: % Inhibition Karpas 299 cells
  inhibition at 0.2 µM: 93%
[1]; KARPAS-299, read-out: IC50 of cellular proliferation, Karpas299
  IC50: 0.023 µM
[2]
  IC50: 0.036 µM
ALKL1196M (GST-His-tag)
  IC50: 0.045 µM
[3]
  IC50: 0.029 µM
RET M918T
  IC50: 0.12 µM
TRK-B
  IC50: 0.088 µM
